Experimental data taken from article PMC12612973, “Inhibition of Human Amylin Aggregation: In Silico and In Vitro Studies” (ACS Omega, 2025).
Several values for one entry are separate records, joined by “and”; a condition that tells them apart may be missing. Equal entries are not always repeated.

Tests used:
Assay type in all cases: biochemical
human amylin (hIAPP) [1] = molecular target: T1, human amylin (hIAPP) (Homo sapiens, UniProt P10997); experiment: Thioflavin T (ThT) fluorescence assay of amylin aggregation; conditions: for ThT inhibition % (mean ± SEM): compound 10 μM, amylin 15 μM, 36 h incubation, 3 trials; for inhibition at 10 µM: read-out: ThT inhibition % (mean ± SEM), compound 10 μM, amylin 15 μM, 36 h incubation, 3 trials
T1 construct: purchased Bachem USA
T1 sequence (P10997 34-70 limits assumed): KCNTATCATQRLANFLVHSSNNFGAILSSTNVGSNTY
Experimental: A stock solution of amylin (1 mM) (purchased from Bachem USA), peptide sequence: […] amide (with disulfide bond between Cys2 and Cys7), was prepared in 100% hexafluoroisopropyl alcohol (HFIP) (purchased from Sigma-Aldrich) and stored at −20 °C. , Aliquots of amylin peptide were filtered through a 0.22 μm filter from the stock solution and freeze-dried. For kinetic experiments, 15 μM of amylin was prepared in 50 mM Tris-HCl buffer (pH 7.4), as investigated in previous studies by Chaari et al., , Samples of amylin were prepared in the presence or absence of inhibitors. Each compound was dissolved in DMSO and further diluted with the buffer used to solubilize the amylin. The final mixture contained 15 μM amylin, 10 μM of the test compound, 2% DMSO or 15 μM amylin, and 2% DMSO without the compound (negative control). Also 15 μM amylin, 10 μM of oleuropein aglycone and 2% DMSO was used as a positive control. The prepared solutions were incubated under physiological conditions (pH 7.4 and 37 °C) for amylin aggregation. Samples were incubated for 36 h to test for amylin aggregation, and measurements were conducted at different time points.
Amylin aggregation was monitored by characteristic changes in Thioflavin T (ThT) fluorescence intensity. A ThT stock solution (15 μM) was prepared in deionized water at pH 7.4. The amylin samples were mixed with the ThT solution and allowed to incubate. ThT fluorescence was measured using the PerkinElmer model LS 55 fluorescence spectrophotometer (PerkinElmer, USA), with an excitation wavelength of 440 nm and an emission wavelength of 480 nm. ,− The emission and excitation slits were set to 5 nm, and a 1 cm cuvette was used for all experiments. Nonspecific background fluorescence was subtracted from the samples using appropriate blanks in the absence of proteins. Each experiment was performed in triplicate.

human amylin (hIAPP) [2] = molecular target: T1, human amylin (hIAPP); experiment: Kinetic analysis of amylin aggregation (ThT, two-step autocatalytic aggregation model); conditions: mean ± S.D.; for t 0 (time point when the aggregation starts): 10% of highest ThT fluorescence; for t 1/2 (aggregation halftime): 50% of highest ThT fluorescence; for t 1 (aggregation endpoint): 90% of highest ThT fluorescence; for k / k e (elongation constant) / k n (nucleation constant) / ρ (ratio of kn to k): ThT data, autocatalytic aggregation model
Experimental: Kinetic analysis was performed according to the model of autocatalytic aggregation. According to Sabaté et al., aggregation is a two-step process, comprising nucleation (described by the k n constant) and fibrillation phases (represented by the k e constant). Two constants (k n and k e) are calculated using the eq : 5 f=ρ{e^[(1+ρ)kt]−1}/{1+ρe^[(1+ρ)kt]} where k = k e a (where a represents the initial concentration of the aggregating peptide), f stands for a fraction of the fibrillar form in the system, and ρ denotes the dimensionless ratio of k n to k. The parameters k and ρ were calculated first, then k n and k e.
Data were normalized as a fraction of the highest fluorescence from the three trials and fitted into the model of autocatalytic aggregation. The same procedure was repeated for the remaining trials. The second calculation aimed to find the time parameters of the aggregation process: t 0 (time point when the aggregation starts), t 1/2 (aggregation halftime), and t 1 (aggregation endpoint). t 0, t 1/2, and t 1 were calculated as 10%, 50%, and 90% of the highest fluorescence measurements from the three trials, respectively. All calculations were performed using GraphPad Prism 9.5.1, Statistica 13.3.721.1, and Microsoft Excel 2304.

human amylin (hIAPP) [3] = molecular target: T1, human amylin (hIAPP); experiment: Thioflavin T (ThT) fluorescence assay of amylin aggregation; conditions: read-out: IC50 of amylin aggregation inhibition

Row | Compound | ThT inhibition % (mean ± SEM) (human amylin (hIAPP) [1]) | inhibition at 10 µM (human amylin (hIAPP) [1]) | t 0 (time point when the aggregation starts) (human amylin (hIAPP) [2]) | t 1/2 (aggregation halftime) (human amylin (hIAPP) [2]) | t 1 (aggregation endpoint) (human amylin (hIAPP) [2]) | k (human amylin (hIAPP) [2]) | k e (elongation constant) (human amylin (hIAPP) [2]) | k n (nucleation constant) (human amylin (hIAPP) [2]) | ρ (ratio of kn to k) (human amylin (hIAPP) [2]) | IC50 (human amylin (hIAPP) [3])
1 | CC(C)(C)c1cccc(CNCC(O)CNCCC(c2ccccc2)c2ccccc2)c1 (centres unmarked) [Compound 18] | 91.5 ± 0.4% | > 88% | 9.31 ± 0.72 h | 19.02 ± 0.57 h | 29.29 ± 0.36 h | 0.2087 ± 0.0084 h^–1 | 13913 M^–1h^–1 and 13913 ± 560 M^–1h^–1 | 0.004 h^–1 and 0.0039 ± 0.0009 h^–1 | 0.0186 ± 0.0051 | 3040 nM
2 | CC(C)(C)c1cccc(CNCC(O)CCNCCC(c2ccccc2)c2ccccc2)c1 (centres unmarked) [Compound 22] | 89.3 ± 0.3% | > 88% | 4.36 ± 0.16 h | 11.87 ± 1.02 h | 20.69 ± 2.27 h | 0.2326 ± 0.0366 h^–1 | 15505 M^–1h^–1 and 15505 ± 2437 M^–1h^–1 | 0.014 h^–1 and 0.0142 ± 0.0006 h^–1 | 0.0624 ± 0.0126 | 2710 nM
